Calls of active or inactive are those of the source. No cut-off for these calls is given here.
Key:
Assay type in all cases: cell-based
[1] = biological target: T1, Oxysterols receptor LXR-alpha (Homo sapiens) (UniProt Q13133); experiment: Induction of LXRalpha enhancer activity in human THP1 cells after 24 hrs by luciferase reporter gene analysis; details: THP-1
T1 sequence (whole entry): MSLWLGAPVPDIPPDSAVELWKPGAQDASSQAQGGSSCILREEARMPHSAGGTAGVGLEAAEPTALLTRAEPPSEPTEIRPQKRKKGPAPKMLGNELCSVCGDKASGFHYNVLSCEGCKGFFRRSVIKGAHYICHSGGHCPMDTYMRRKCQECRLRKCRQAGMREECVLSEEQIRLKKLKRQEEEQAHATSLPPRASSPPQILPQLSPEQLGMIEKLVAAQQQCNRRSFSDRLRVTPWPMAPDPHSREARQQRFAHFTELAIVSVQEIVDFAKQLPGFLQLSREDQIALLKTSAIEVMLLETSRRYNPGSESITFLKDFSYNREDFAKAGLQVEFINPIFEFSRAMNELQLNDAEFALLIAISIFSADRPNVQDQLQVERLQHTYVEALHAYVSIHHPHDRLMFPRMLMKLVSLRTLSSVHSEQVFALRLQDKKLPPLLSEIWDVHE

[2] = biological target: T1, Oxysterols receptor LXR-alpha (Homo sapiens); experiment: Induction of LXRalpha-mediated ABCA1 promoter activity in human THP1 cells after 24 hrs by luciferase reporter gene analysis; details: THP-1
[3] = biological target: T1, Oxysterols receptor LXR-alpha (Homo sapiens); experiment: Increase in LXRalpha-mediated ABCA1 mRNA expression in human THP1 cells at 5 to 15 uM after 24 hrs by RT-PCR analysis; details: THP-1
[4] = biological target: T1, Oxysterols receptor LXR-alpha (Homo sapiens); experiment: Increase in LXRalpha-mediated ABCA1 protein expression in human THP1 cells at 5 to 15 uM after 48 hrs by Western blotting analysis; details: THP-1
[5] = biological target: T2, Peroxisome proliferator-activated receptor gamma (Homo sapiens) (UniProt P37231); experiment: Induction of PPARgamma enhancer activity in human THP1 cells after 24 hrs by luciferase reporter gene analysis; details: THP-1
T2 sequence (whole entry): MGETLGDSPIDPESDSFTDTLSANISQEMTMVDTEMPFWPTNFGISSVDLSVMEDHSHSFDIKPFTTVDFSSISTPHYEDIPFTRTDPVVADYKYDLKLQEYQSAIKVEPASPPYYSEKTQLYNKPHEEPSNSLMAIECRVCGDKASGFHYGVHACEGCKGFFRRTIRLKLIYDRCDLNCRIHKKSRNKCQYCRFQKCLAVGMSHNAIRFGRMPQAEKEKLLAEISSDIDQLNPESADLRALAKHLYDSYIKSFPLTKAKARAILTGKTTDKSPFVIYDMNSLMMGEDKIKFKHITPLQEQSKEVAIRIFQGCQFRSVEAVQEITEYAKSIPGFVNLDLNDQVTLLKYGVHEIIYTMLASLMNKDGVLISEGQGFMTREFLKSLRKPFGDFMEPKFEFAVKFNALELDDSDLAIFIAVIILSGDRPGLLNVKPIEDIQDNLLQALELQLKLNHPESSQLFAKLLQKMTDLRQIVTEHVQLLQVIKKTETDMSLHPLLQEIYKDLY

[6] = biological target: T2, Peroxisome proliferator-activated receptor gamma (Homo sapiens); experiment: Induction of PPARgamma-mediated ABCA1 promoter activity in human THP1 cells after 24 hrs by luciferase reporter gene analysis; details: THP-1
THP-1 = experiment: Cytotoxicity against human THP1 cells up to 100 uM after 24 hrs by WST8 assay; details: thp-1, 24 h

In the case of `COc1ccc([C@@H]2CC(=O)c3c(O)cc(O)cc3O2)cc1O` [HESPERETIN], the Activity [1] is reported as “Dose-dependent effect”, the Activity [2] is reported as “Active” and the Activity [3] is reported as “Active”. The Activity [4] was “Active”, the Activity [5] was “Dose-dependent effect” and the Activity [6] was “Active”. For the same compound, the Activity (THP-1) was “Non-toxic”.
